Results published in patent US20250339569A1, “CARBONIC ANHYDRASE IX LIGANDS” (priority 2021, published 2025).
Read-outs that look alike come from different tables or passages of the source. Starred links: 1 amine or outer side, 2 acyl side, 3 side chain; linkers in the order of their positions; H or OH if unused. Positions of bridges follow the written chain, without caps; N, C: chain ends. Non-standard residues stand in square brackets, D forms with d. Residues, ends and D or L forms follow the SMILES beside them. *: point of attachment. NH(CH2)3NH(O2Oc(DOTA)) = O=C(O)CN1CCN(CC(=O)O)CCN(CC(=O)NCCOCCOCC(=O)NCCCN*)CCN(CC(=O)O)CC1; NH(CH2)3NHDOTA = O=C(O)CN1CCN(CC(=O)O)CCN(CC(=O)NCCCN*)CCN(CC(=O)O)CC1; X3 = O=C(O)CN1CCN(CC(=O)O)CCN(CC(=O)NCCCOCCOCCOCCCN*)CCN(CC(=O)O)CC1; NH(1-deoxy-D-glucityl) = OC[C@@H](O)[C@@H](O)[C@H](O)[C@@H](O)CN*; DOTA = O=C(O)CN1CCN(CC(=O)O)CCN(CC(=O)*)CCN(CC(=O)O)CC1; mXylylene = c1cc(C[*:1])cc(C[*:2])c1; Orn(Me2) = CN(C)CCC[C@H](N)C(=O)O; X2 = O=C(CN1CCC(N[*:1])CC1)[*:2]; Suc = O=C(CCC(=O)[*:2])[*:1]; Propanoyl(3-OH) = O=C(CCO)*; Isovaleryl = CC(C)CC(=O)*; hSer = N[C@@H](CCO)C(=O)O; Nle = CCCC[C@H](N)C(=O)O; Bn = c1ccc(C*)cc1

Legend:
[1] = Plasma stability assay, mouse plasma; settings: mouse plasma, 37°C, 24 h
[2] = molecular target: T1, human carbonic anhydrase IX (hCAIX-Fc) (Homo sapiens, UniProt Q16790); test: Surface plasmon resonance assay with hCAIX-Fc; type: binding; settings: 25° C.; for t1/2 category (activity): SPR dissociation half-life, hCAIX-Fc; for Kd: SPR, hCAIX-Fc captured, read-out: pKD category (activity) (converted)
T1 construct: purchased SinoBliological (Sino Biological) 10107-H02H

[3] = molecular target: T2, CAIX-expressing human HT-29 colorectal cancer cells (Homo sapiens, UniProt Q16790); test: FACS binding assay (IC50 determination, competition with tracer 3BP-2776 or 3BP-4149); settings: 4° C., 1 hour, read-out: pIC50 category (activity) (converted)
T2 construct: CAIX-expressing human HT-29 colorectal cancer cells; host or cells: HT-29 human colorectal cancer cells
Outline: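 HT-29 cells in FACS buffer (PBS, 1% FCS) at 500.000 cells/ml were exposed to compounds competing with a labelled tracer, with biotinylated compounds detected by 1 μg/mL APC-streptavidin for 30 min on ice. APC/Cy5 median fluorescence was read by flow cytometry and IC50 derived by 4PL fit.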

[4] = FACS competition on HT-29 cells, Tracer ID 3BP-2776 (10 nM, biotin-labeled)
[5] = FACS binding assay, HT-29 cells, competition with tracer 3BP-2776 (10 nM, biotin-labeled)

Row | SMILES | % intact compound remaining (incubation time) [1] [%] | t1/2 category (activity) [2] | Kd [2] [nM] | IC50 [3, 4] [nM] | IC50 [3, 5] [nM]
1 | CC(C)CC(=O)N[C@@H](Cc1ccc(O)cc1)C(=O)N[C@H]1CSCc2cccc(c2)CSC[C@@H](C(N)=O)NC(=O)[C@H](CCC(=O)NCCCNC(=O)COCCOCCNC(=O)CN2CCN(CC(=O)O)CCN(CC(=O)O)CCN(CC(=O)O)CC2)NC(=O)[C@H](Cc2c[nH]c3ccccc23)NC(=O)[C@H]([C@@H](C)O)NC(=O)[C@H](CC(C)C)NC(=O)[C@H](Cc2c[nH]c3ccccc23)NC(=O)[C@H](CC(=O)O)NC(=O)[C@H]2CCCN2C(=O)[C@H](CCC(=O)O)NC1=O [3BP-3740] (Isovaleryl-YCE[dP]DWLTWE(NH(CH2)3NH(O2Oc(DOTA)))C-NH2; linker 2-11 via mXylylene) | >95 | B (t1/2 between 5.1 and 15.0 minutes) | < 10 | < 10 | –
2 | CC(=O)N[C@@H](CCCCNC(=O)CN1CCN(CC(=O)O)CCN(CC(=O)O)CCN(CC(=O)O)CC1)C(=O)N[C@H](C(=O)N[C@@H](Cc1ccc(O)cc1)C(=O)N[C@H]1CSCc2cccc(c2)CSC[C@@H](C(N)=O)NC(=O)[C@H](CO)NC(=O)[C@H](Cc2c[nH]c3ccccc23)NC(=O)[C@H]([C@@H](C)O)NC(=O)[C@H](CC(C)C)NC(=O)[C@H](Cc2c[nH]c3ccccc23)NC(=O)[C@H](CC(=O)O)NC(=O)[C@H]2CCCN2C(=O)[C@H](CCC(=O)O)NC1=O)C(C)C [3BP-3840] (Ac-K(DOTA)VYCE[dP]DWLTWSC-NH2; linker 4-13 via mXylylene) | >95 | B (t1/2 between 5.1 and 15.0 minutes) | < 10 | < 10 | –
3 | CC(C)C[C@@H]1NC(=O)[C@H](Cc2c[nH]c3ccccc23)NC(=O)[C@H](CC(=O)O)NC(=O)[C@H]2CCCN2C(=O)[C@H](CCC(=O)O)NC(=O)[C@@H](NC(=O)[C@H](Cc2ccc(O)cc2)NC(=O)CCO)CSCc2cccc(c2)CSC[C@@H](C(N)=O)NC(=O)[C@H](CCC(=O)NCCCNC(=O)CN2CCN(CC(=O)O)CCN(CC(=O)O)CCN(CC(=O)O)CC2)NC(=O)[C@H](Cc2c[nH]c3ccccc23)NC(=O)[C@H]([C@@H](C)O)NC1=O [3BP-3842] ({Propanoyl(3-OH)}-YCE[dP]DWLTWE(NH(CH2)3NHDOTA)C-NH2; linker 2-11 via mXylylene) | >95 | C (t1/2 between 2.1 and 5.0 minutes) | < 10 | < 10 | –
4 | CC(C)C[C@@H]1NC(=O)[C@H](Cc2c[nH]c3ccccc23)NC(=O)[C@H](CC(=O)O)NC(=O)[C@H]2CCCN2C(=O)[C@H](CCC(=O)O)NC(=O)[C@@H](NC(=O)[C@H](Cc2ccc(O)cc2)NC(=O)CN2CCN(CC(=O)O)CCN(CC(=O)O)CCN(CC(=O)O)CC2)CSCc2cccc(c2)CSC[C@@H](C(N)=O)NC(=O)[C@H](CO)NC(=O)[C@H](Cc2c[nH]c3ccccc23)NC(=O)[C@H]([C@@H](C)O)NC1=O [3BP-3859] ({DOTA}-YCE[dP]DWLTWSC-NH2; linker 2-11 via mXylylene) | >95 | B (t1/2 between 5.1 and 15.0 minutes) | – | < 10 | –
5 | CCCC[C@H](NC(=O)CCC(=O)NCCCOCCOCCOCCCNC(=O)CN1CCN(CC(=O)O)CCN(CC(=O)O)CCN(CC(=O)O)CC1)C(=O)N[C@@H](Cc1ccc(O)cc1)C(=O)N[C@H]1CSCc2cccc(c2)CSC[C@@H](C(N)=O)NC(=O)[C@H](CO)NC(=O)[C@H](Cc2c[nH]c3ccccc23)NC(=O)[C@H]([C@@H](C)O)NC(=O)[C@H](CC(C)C)NC(=O)[C@H](Cc2c[nH]c3ccccc23)NC(=O)[C@H](CC(=O)O)NC(=O)[C@H]2CCCN2C(=O)[C@H](CCC(=O)O)NC1=O [3BP-3870] ({X3-Suc}-[Nle]YCE[dP]DWLTWSC-NH2; linker 3-12 via mXylylene) | 92 | B (t1/2 between 5.1 and 15.0 minutes) | < 10 | < 10 | –
6 | CC(=O)N[C@H](C(=O)N[C@@H](Cc1ccccc1)C(=O)N[C@H]1CSCc2cccc(c2)CSC[C@@H](C(N)=O)NC(=O)[C@H](CCC(=O)NCCCNC(=O)CN2CCN(CC(=O)O)CCN(CC(=O)O)CCN(CC(=O)O)CC2)NC(=O)[C@H](Cc2c[nH]c3ccccc23)NC(=O)[C@H]([C@@H](C)O)NC(=O)[C@H](CC(C)C)NC(=O)[C@H](Cc2c[nH]c3ccccc23)NC(=O)[C@H](CC(=O)O)NC(=O)[C@H]2CCCN2C(=O)[C@H](CCC(=O)O)NC1=O)C(C)C [3BP-3874] (Ac-VFCE[dP]DWLTWE(NH(CH2)3NHDOTA)C-NH2; linker 3-12 via mXylylene) | >95 | B (t1/2 between 5.1 and 15.0 minutes) | < 10 | < 10 | –
7 | CC(C)C[C@@H]1NC(=O)[C@H](Cc2c[nH]c3ccccc23)NC(=O)[C@@H]2CCCCNC(=O)CC[C@H](NC1=O)C(=O)N[C@@H](Cc1c[nH]c3ccccc13)C(=O)N[C@@H](CO)C(=O)N[C@H](C(N)=O)CSCc1cccc(c1)CSC[C@H](NC(=O)[C@H](Cc1ccc(O)cc1)NC(=O)CN1CCN(CC(=O)O)CCN(CC(=O)O)CCN(CC(=O)O)CC1)C(=O)N[C@@H](CCC(=O)O)C(=O)N1CCC[C@@H]1C(=O)N2 [3BP-3934, DOTA-Tyr-[Cys(3MeBn)-Glu-pro-{Lys-Trp-Leu-Glu}-Trp-Ser-Cys]-NH2] ({DOTA}-YCE[dP]KWLEWSC-NH2; linker 2-11 via mXylylene; lactam 5-8) | >95 | C (t1/2 between 2.1 and 5.0 minutes) | < 10 | < 10 | –
8 | CC(C)C[C@@H]1NC(=O)[C@H](Cc2c[nH]c3ccccc23)NC(=O)[C@H](CC(=O)O)NC(=O)[C@H]2CCCN2C(=O)[C@H](CCCN(C)C)NC(=O)[C@@H](NC(=O)[C@H](Cc2ccc(O)cc2)NC(=O)[C@@H](NC(=O)CN2CCC(NC(=O)CN3CCN(CC(=O)O)CCN(CC(=O)O)CCN(CC(=O)O)CC3)CC2)C(C)C)CSCc2cccc(c2)CSC[C@@H](C(N)=O)NC(=O)[C@H](CO)NC(=O)[C@H](Cc2c[nH]c3ccccc23)NC(=O)[C@H]([C@@H](C)O)NC1=O [3BP-4096] ({DOTA}-[X2]VYC[Orn(Me2)][dP]DWLTWSC-NH2; linker 4-13 via mXylylene) | 93 | B (t1/2 between 5.1 and 15.0 minutes) | < 10 | – | < 10
9 | CC(C)C[C@@H]1NC(=O)[C@H](Cc2c[nH]c3ccccc23)NC(=O)[C@H](CC(=O)O)NC(=O)[C@H]2CCCN2C(=O)[C@H](CCO)NC(=O)[C@@H](NC(=O)[C@H](Cc2ccc(O)cc2)NC(=O)[C@@H](NC(=O)CN2CCC(NC(=O)CN3CCN(CC(=O)O)CCN(CC(=O)O)CCN(CC(=O)O)CC3)CC2)C(C)C)CSCc2cccc(c2)CSC[C@@H](C(N)=O)NC(=O)[C@H](CO)NC(=O)[C@H](Cc2c[nH]c3ccccc23)NC(=O)[C@H]([C@@H](C)O)NC1=O [3BP-4101] ({DOTA}-[X2]VYC[hSer][dP]DWLTWSC-NH2; linker 4-13 via mXylylene) | 93 | B (t1/2 between 5.1 and 15.0 minutes) | < 10 | – | < 10
10 | CC(C)C[C@@H]1NC(=O)[C@H](Cc2c[nH]c3ccccc23)NC(=O)[C@H](CC(N)=O)NC(=O)[C@H]2CCCN2C(=O)[C@H](CCC(=O)O)NC(=O)[C@@H](NC(=O)[C@H](Cc2ccc(O)cc2)NC(=O)[C@@H](NC(=O)CN2CCC(NC(=O)CN3CCN(CC(=O)O)CCN(CC(=O)O)CCN(CC(=O)O)CC3)CC2)C(C)C)CSCc2cccc(c2)CSC[C@@H](C(N)=O)NC(=O)[C@H](CO)NC(=O)[C@H](Cc2c[nH]c3ccccc23)NC(=O)[C@H]([C@@H](C)O)NC1=O [3BP-4103] ({DOTA}-[X2]VYCE[dP]NWLTWSC-NH2; linker 4-13 via mXylylene) | 81 | A (t1/2>15.0 minutes) | < 10 | – | < 10
11 | CC(C)C[C@@H]1NC(=O)[C@H](Cc2c[nH]c3ccccc23)NC(=O)[C@H](CC(=O)O)NC(=O)[C@H]2CCCN2C(=O)[C@H](CCC(=O)O)NC(=O)[C@@H](NC(=O)[C@H](CCC(=O)NC[C@H](O)[C@@H](O)[C@H](O)[C@H](O)CO)NC(=O)[C@@H](NC(=O)CN2CCC(NC(=O)CN3CCN(CC(=O)O)CCN(CC(=O)O)CCN(CC(=O)O)CC3)CC2)C(C)C)CSCc2cccc(c2)CSC[C@@H](C(N)=O)NC(=O)[C@H](CO)NC(=O)[C@H](Cc2c[nH]c3ccccc23)NC(=O)[C@H]([C@@H](C)O)NC1=O [3BP-4112] ({DOTA}-[X2]VE(NH(1-deoxy-D-glucityl))CE[dP]DWLTWSC-NH2; linker 4-13 via mXylylene) | >95 | B (t1/2 between 5.1 and 15.0 minutes) | < 10 | – | < 10
12 | CC(C)C[C@@H]1NC(=O)[C@H](Cc2c[nH]c3ccccc23)NC(=O)[C@H](CSCc2ccccc2)NC(=O)[C@H]2CCCN2C(=O)[C@H](CCC(=O)O)NC(=O)[C@@H](NC(=O)[C@H](Cc2ccc(O)cc2)NC(=O)[C@@H](NC(=O)CN2CCC(NC(=O)CN3CCN(CC(=O)O)CCN(CC(=O)O)CCN(CC(=O)O)CC3)CC2)C(C)C)CSCc2cccc(c2)CSC[C@@H](C(N)=O)NC(=O)[C@H](CO)NC(=O)[C@H](Cc2c[nH]c3ccccc23)NC(=O)[C@H]([C@@H](C)O)NC1=O [3BP-4128] ({DOTA}-[X2]VYCE[dP]C(Bn)WLTWSC-NH2; linker 4-13 via mXylylene) | 87 | A (t1/2>15.0 minutes) | < 10 | – | < 10
